Measurements as given in ChEMBL document CHEMBL1155915, “Anticonvulsant activity of some xanthone derivatives” (Bioorg Med Chem, 2008).
Activity calls are given as the source filed them. The rule behind the calls is not given here.

What was measured:
[1] = system: Mus musculus; assay: Anticonvulsant activity against maximal electroshock-induced seizures in mouse at 300 mg/kg, ip after 4 hrs; type: functional, organism-based; set-up: dose 300 mg/kg
[2] = system: Mus musculus; assay: Anticonvulsant activity against scMet-induced seizures in mouse at 100 mg/kg, ip after 4 hrs; type: functional, organism-based; set-up: dose 100 mg/kg
[3] = system: Mus musculus; assay: Anticonvulsant activity against maximal electroshock-induced seizures in mouse at 30 mg/kg, ip after 4 hrs; type: functional, organism-based; set-up: dose 30 mg/kg
[4] = system: Mus musculus; assay: Neurotoxicity in mouse at 100 mg/kg, ip after 4 hrs by rotarod test; type: toxicity, organism-based; set-up: dose 100 mg/kg, route intraperitoneal; conditions: in vivo
[5] = system: Mus musculus; assay: Neurotoxicity in mouse at 30 mg/kg, ip after 4 hrs by rotarod test; type: toxicity, organism-based; set-up: dose 30 mg/kg, route intraperitoneal; conditions: in vivo
[6] = system: Mus musculus; assay: Anticonvulsant activity against maximal electroshock-induced seizures in mouse at 100 mg/kg, ip after 4 hrs; type: functional, organism-based; set-up: dose 100 mg/kg
[7] = system: Mus musculus; assay: Neurotoxicity in mouse at 300 mg/kg, ip after 4 hrs by rotarod test; type: toxicity, organism-based; set-up: dose 300 mg/kg, route intraperitoneal; conditions: in vivo
[8] = system: Mus musculus; assay: Anticonvulsant activity against scMet-induced seizures in mouse at 300 mg/kg, ip after 0.5 hrs; type: functional, organism-based; set-up: dose 300 mg/kg
[9] = system: Mus musculus; assay: Anticonvulsant activity against scMet-induced seizures in mouse at 30 mg/kg, ip after 0.5 hrs; type: functional, organism-based; set-up: dose 30 mg/kg
[10] = system: Mus musculus; assay: Anticonvulsant activity against scMet-induced seizures in mouse at 100 mg/kg, ip after 0.5 hrs; type: functional, organism-based; set-up: dose 100 mg/kg
[11] = system: Mus musculus; assay: Anticonvulsant activity against scMet-induced seizures in mouse at 30 mg/kg, ip after 4 hrs; type: functional, organism-based; set-up: dose 30 mg/kg
[12] = system: Mus musculus; assay: Anticonvulsant activity against scMet-induced seizures in mouse at 300 mg/kg, ip after 4 hrs; type: functional, organism-based; set-up: dose 300 mg/kg
[13] = system: Mus musculus; assay: Anticonvulsant activity against maximal electroshock-induced seizures in mouse at 300 mg/kg, ip after 0.5 hrs; type: functional, organism-based; set-up: dose 300 mg/kg
[14] = system: Mus musculus; assay: Anticonvulsant activity against maximal electroshock-induced seizures in mouse at 30 mg/kg, ip after 0.5 hrs; type: functional, organism-based; set-up: dose 30 mg/kg
[15] = system: Mus musculus; assay: Anticonvulsant activity against maximal electroshock-induced seizures in mouse at 100 mg/kg, ip after 0.5 hrs; type: functional, organism-based; set-up: dose 100 mg/kg
[16] = system: Mus musculus; assay: Neurotoxicity in mouse at 30 mg/kg, ip after 0.5 hrs by rotarod test; type: toxicity, organism-based; set-up: dose 30 mg/kg, route intraperitoneal; conditions: in vivo
[17] = system: Mus musculus; assay: Neurotoxicity in mouse at 100 mg/kg, ip after 0.5 hrs by rotarod test; type: toxicity, organism-based; set-up: dose 100 mg/kg, route intraperitoneal; conditions: in vivo
[18] = system: Mus musculus; assay: Neurotoxicity in mouse at 300 mg/kg, ip after 0.5 hrs by rotarod test; type: toxicity, organism-based; set-up: dose 300 mg/kg, route intraperitoneal; conditions: in vivo

| SMILES | Activity [1] | Activity [2] | Activity [3] | Neurotoxicity [4] | Neurotoxicity [5] | Activity [6] | Neurotoxicity [7] | Activity [8] | Activity [9] | Activity [10] | Activity [11] | Activity [12] | Activity [13] | Activity [14] | Activity [15] | Neurotoxicity [16] | Neurotoxicity [17] | Neurotoxicity [18] |
| --- | --- | --- | --- | --- | --- | --- | --- | --- | --- | --- | --- | --- | --- | --- | --- | --- | --- | --- |
| O=c1c2ccc(Cl)cc2oc2ccc(CNCCO)cc12 | Active | inactive | inactive | Not Active | Not Active | inactive | Not Active | inactive | inactive | inactive | inactive | inactive | Active | inactive |  |  |  |  |
| CCOC(=O)CNC(=O)c1ccc2oc3ccccc3c(=O)c2c1 | inactive | inactive | inactive | Not Active | Not Active | inactive | Not Active | inactive | inactive | inactive | inactive | inactive | inactive | inactive | inactive | Not Active | Not Active | Not Active |
| C[C@@H](O)CNCc1ccc2oc3cc(Cl)ccc3c(=O)c2c1 | inactive | inactive | Active |  |  | Active | Neurotoxic | inactive | inactive | inactive | inactive | inactive | Active | inactive | Active |  |  | Neurotoxic |
| CC(CO)NC(=O)c1ccc2oc3cc(Cl)ccc3c(=O)c2c1 (racemic) | inactive | inactive | inactive | Not Active | Not Active | inactive | Not Active | inactive | inactive | inactive | inactive | inactive | inactive | inactive | inactive |  | Not Active | Not Active |
| O=C(NCCCCO)c1ccc2oc3ccccc3c(=O)c2c1 | inactive | inactive | inactive | Not Active | Not Active | inactive | Not Active | inactive | inactive | inactive | inactive | inactive | inactive | inactive | inactive | Not Active | Not Active | Not Active |
| CC(CO)NC(=O)c1ccc2oc3ccccc3c(=O)c2c1 (stereo not given) | inactive | inactive | inactive | Not Active | Not Active | inactive | Not Active | inactive | inactive | inactive | inactive | inactive | inactive | inactive | inactive | Not Active | Not Active | Not Active |
| C[C@H](O)CNCc1ccc2oc3cc(Cl)ccc3c(=O)c2c1 | inactive | inactive | Active | Not Active | Not Active | Active |  | inactive | inactive | inactive | inactive | inactive | Active | inactive | Active | Not Active |  |  |
| CC[C@H](CO)NCc1ccc2oc3cc(Cl)ccc3c(=O)c2c1 | Active | inactive | inactive |  | Not Active | inactive |  | inactive | inactive | inactive | inactive | inactive | Active | inactive |  | Not Active |  | Neurotoxic |
| CN(CCO)Cc1ccc2oc3cc(Cl)ccc3c(=O)c2c1 |  | inactive | inactive | Not Active | Not Active | inactive | Neurotoxic | inactive | inactive | inactive | inactive | inactive | inactive | inactive |  | Not Active |  | Neurotoxic |
| NC(=O)CNC(=O)c1ccc2oc3ccccc3c(=O)c2c1 | inactive | inactive | inactive | Not Active | Not Active | inactive | Not Active | inactive | inactive | inactive | inactive | inactive | inactive | inactive | inactive | Not Active | Not Active | Not Active |
| O=C(N[C@@H]1CCCC[C@H]1O)c1ccc2oc3ccccc3c(=O)c2c1 (racemic) | inactive | inactive | inactive | Not Active | Not Active |  | Not Active | inactive | inactive | inactive | inactive | inactive | inactive | inactive | inactive | Not Active | Not Active |  |
| CC(CCl)N(C)Cc1ccc2oc3cc(Cl)ccc3c(=O)c2c1.Cl (stereo not given) | inactive | inactive | inactive |  | Not Active | inactive | Neurotoxic | inactive | inactive | inactive | inactive | inactive | Active | inactive |  | Not Active |  | Neurotoxic |
| C[C@@H](CO)N(C)Cc1ccc2oc3cc(Cl)ccc3c(=O)c2c1 | Active | inactive | inactive | Not Active |  |  | Neurotoxic | inactive | inactive | inactive | inactive | inactive | Active | inactive | Active |  |  | Neurotoxic |
| O=c1c2ccc(Cl)cc2oc2ccc(CNCCCCCO)cc12 | Active | inactive | inactive | Not Active | Not Active | inactive |  | inactive | inactive | inactive | inactive | inactive | Active | inactive |  |  |  | Neurotoxic |
